# Assay results taken from patent US20250353891A1 (MEDIMMUNE LIMITED, priority 2022, published 2025).
# Starred links: 1 amine or outer side, 2 acyl side, 3 side chain; linkers in the order of their positions; H or OH if unused. Non-standard residues stand in square brackets, D forms with d. Residues, ends and D or L forms follow the SMILES beside them. Groups on a side chain read outwards from the residue. *: point of attachment. C20 diacid = O=C(O)CCCCCCCCCCCCCCCCCCC(=O)*; C18 diacid = O=C(O)CCCCCCCCCCCCCCCCC(=O)*; γGlu = O=C(O)[C@H](CCC(=O)[*:2])N[*:1]; αMeF = C[C@](N)(Cc1ccccc1)C(=O)O; AEEA = NCCOCCOCC(=O)O; Aib = CC(C)(N)C(=O)O
# Legend:
# [1] = target: human GLP-1 receptor (hGLP-1R) (Homo sapiens, UniProt P43220); assay: cAMP production (HTRF) in CHO cells expressing hGLP-1R; type: cell-based; design: expressed in transfected cells; conditions: for % Relative Potency Ratio: % GLP-1R activity relative to GLP-1 / % GlucR activity relative to glucagon; for EC50: cAMP, CHO cells, 0.1% BSA, geometric mean, read-out: hGLP-1R EC50
# human GLP-1 receptor (hGLP-1R), sequence (P43220 24-463): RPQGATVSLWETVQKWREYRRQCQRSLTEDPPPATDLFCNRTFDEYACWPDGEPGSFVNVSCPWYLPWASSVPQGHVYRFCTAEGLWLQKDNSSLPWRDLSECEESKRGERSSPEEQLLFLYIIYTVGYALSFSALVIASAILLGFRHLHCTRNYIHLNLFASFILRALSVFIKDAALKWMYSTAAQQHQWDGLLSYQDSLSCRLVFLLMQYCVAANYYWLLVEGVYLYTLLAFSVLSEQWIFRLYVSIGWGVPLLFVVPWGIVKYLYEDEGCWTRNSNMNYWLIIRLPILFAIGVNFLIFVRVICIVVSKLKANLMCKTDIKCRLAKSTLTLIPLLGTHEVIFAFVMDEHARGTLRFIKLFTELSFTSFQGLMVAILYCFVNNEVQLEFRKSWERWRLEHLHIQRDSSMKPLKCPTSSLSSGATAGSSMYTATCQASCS
# Method in brief: (§1)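 Potency values represent EC50 from 4-parameter logistic curves of HTRF % Delta F signal. Receptor-expressing CHO cells (hGCGR 2×10^5 cells/mL, hGLP-1R 1×10^5 cells/mL) were exposed for 30 min at room temperature before two-step cAMP detection.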
# [2] = target: human glucagon receptor (hGCGR) (Homo sapiens, UniProt P47871); assay: cAMP production (HTRF) in CHO cells expressing hGCGR; type: cell-based; design: expressed in transfected cells; conditions: cAMP, CHO cells, 0.1% BSA, geometric mean; read-out: hGluc-R EC50
# human glucagon receptor (hGCGR), sequence (P47871 26-477): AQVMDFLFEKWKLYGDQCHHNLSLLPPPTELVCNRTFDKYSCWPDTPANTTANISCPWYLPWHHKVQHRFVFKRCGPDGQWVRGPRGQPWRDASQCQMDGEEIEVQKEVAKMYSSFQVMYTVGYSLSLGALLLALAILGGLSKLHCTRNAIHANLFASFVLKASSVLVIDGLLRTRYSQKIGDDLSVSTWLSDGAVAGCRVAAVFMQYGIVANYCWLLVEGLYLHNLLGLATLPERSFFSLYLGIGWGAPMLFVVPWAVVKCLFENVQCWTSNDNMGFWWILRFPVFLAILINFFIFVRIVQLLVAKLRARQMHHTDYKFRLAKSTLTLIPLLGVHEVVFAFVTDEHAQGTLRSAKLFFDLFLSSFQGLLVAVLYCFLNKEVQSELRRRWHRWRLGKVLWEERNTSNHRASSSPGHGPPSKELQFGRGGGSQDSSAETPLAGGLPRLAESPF
# Method in brief: as §1
# [3] = Mouse acute food intake study; type: in vivo; conditions: male C57Bl/6 mice, s.c., dose 10 nmol/kg, cumulative food intake at 24 hr vs vehicle
# Method in brief: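 Peptide or vehicle went subcutaneously (5 mL/kg) to 6-8 h-fasted male C57Bl/6 mice shortly before the dark phase, with groups balanced on body weight and 24-hour intake. Cumulative food consumption was derived from 48 h of automated BioDaq monitoring with free food and water access.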
Compound,% Relative Potency Ratio [1],EC50 [1] [nM],EC50 [2] [nM],24 hr % Vehicle Food Intake [3] [%]
CC[C@H](C)[C@H](NC(=O)C(C)(C)NC(=O)[C@H](CCCCNC(=O)COCCOCCNC(=O)COCCOCCNC(=O)CC[C@H](NC(=O)CCCCCCCCCCCCCCCCC(=O)O)C(=O)O)NC(=O)[C@@H](NC(=O)[C@H](Cc1ccccc1)NC(=O)[C@H](CC(=O)O)NC(=O)[C@H](CCC(N)=O)NC(=O)[C@H](C)NC(=O)[C@H](C)NC(=O)[C@H](CCCNC(=N)N)NC(=O)[C@H](CO)NC(=O)[C@H](CC(=O)O)NC(=O)[C@H](CC(C)C)NC(=O)[C@](C)(Cc1ccccc1)NC(=O)[C@H](CCCCN)NC(=O)[C@H](CO)NC(=O)[C@@H](NC(=O)[C@H](CC(=O)O)NC(=O)[C@H](CO)NC(=O)[C@@H](NC(=O)[C@](C)(Cc1ccccc1)NC(=O)[C@H](CO)NC(=O)CNC(=O)[C@H](Cc1c[nH]cn1)NC(=O)C(C)(C)NC(=O)[C@@H](N)Cc1c[nH]cn1)[C@@H](C)O)C(C)C)C(C)C)C(=O)N[C@@H](C)C(=O)N[C@@H](CC(N)=O)C(=O)N[C@H](C(N)=O)[C@@H](C)O [Peptide 366] (H-H[Aib]HGS[αMeF]TSDVSK[αMeF]LDSRAAQDFVK([AEEA-AEEA-γGlu-C18 diacid])[Aib]IANT-NH2; N-terminus assumed),1.7,0.031,0.0274,83.5
CC[C@H](C)[C@H](NC(=O)C(C)(C)NC(=O)[C@H](CCCCNC(=O)COCCOCCNC(=O)COCCOCCNC(=O)CC[C@H](NC(=O)CC[C@H](NC(=O)CCCCCCCCCCCCCCCCCCC(=O)O)C(=O)O)C(=O)O)NC(=O)[C@@H](NC(=O)[C@](C)(Cc1ccccc1)NC(=O)[C@H](CC(=O)O)NC(=O)[C@H](CCC(N)=O)NC(=O)[C@H](C)NC(=O)[C@H](C)NC(=O)[C@H](CCCNC(=N)N)NC(=O)[C@H](CO)NC(=O)[C@H](CC(=O)O)NC(=O)[C@H](CC(C)C)NC(=O)[C@](C)(Cc1ccccc1)NC(=O)[C@H](CCCCN)NC(=O)[C@H](CO)NC(=O)[C@@H](NC(=O)[C@H](CC(=O)O)NC(=O)[C@H](CO)NC(=O)[C@@H](NC(=O)[C@](C)(Cc1ccccc1)NC(=O)[C@H](CO)NC(=O)CNC(=O)[C@H](Cc1c[nH]cn1)NC(=O)C(C)(C)NC(=O)[C@@H](N)Cc1c[nH]cn1)[C@@H](C)O)C(C)C)C(C)C)C(=O)N[C@@H](C)C(=O)N[C@@H](CC(N)=O)C(=O)N[C@H](C(N)=O)[C@@H](C)O [Peptide 375] (H-H[Aib]HGS[αMeF]TSDVSK[αMeF]LDSRAAQD[αMeF]VK([AEEA-AEEA-γGlu-γGlu-C20 diacid])[Aib]IANT-NH2; N-terminus assumed),1.4,0.225,0.155,66.0
